Data on 17 compounds can be found in patent US9227949B2, “Heteroarylcarboxylic acid ester derivative” (AJINOMOTO CO., INC., priority 2012, dated 2016).

The structures appear in SMILES notation.

The subject of one experiment is Zucker Fatty rats. As to the kind of experiment: Evaluation of hypoglycemic action (blood glucose levels after oral gavage). Type of experiment: in vivo. The settings on record: gavage 3 mg/kg, HCl salt form, 2 or 4 hours after dosing, free access to feed. How it is done:
Zucker Fatty rats (male, 11-19 week-old, Charles River Japan, Inc.) known to spontaneously develop hyperglycemia were randomly assigned to the groups (6 per group). The animals were individually housed in a polycarbonate cage and allowed to drink water freely from a watering bottle. The animals in the compound groups were gavaged with compound No. 10, 87, 19, or 69 at the dose of 3 mg/kg. These compounds were used as HCl salt form thereof, converted by the method according to Example 3, step 6 from TFA salt form thereof upon the necessity. The animals in the control group were only treated with the vehicle (0.5% methylcellulose). Animals were allowed free access to the feed (CRF-1, Oriental Yeast Co., Ltd.) during the experiment. An aspirate of the blood (6 μL) was collected from the tail vein on the time point of immediately before dosing (time 0) as well as 2, 4, and 8 hours after dosing. The blood glucose levels were determined with ACCU-CHEK Aviva (Roche Diagnostics K.K.).

The target in experiment [1] is human trypsin (Homo sapiens, UniProt P07477). As to the kind of experiment: Measurement of trypsin inhibitory activity. The settings on record: substrate Boc-Phe-Ser-Arg-AMC, Tris-HCl pH 8.0, Dixon plot. Type of experiment: biochemical. The protocol: (§1) Using a 96 well plate (#3915, Costar), a test compound (25 μL) was mixed with 20 μM fluorescence enzyme substrate (Boc-Phe-Ser-Arg-AMC, 50 μL) mixed with 200 mM Tris-HCl buffer (pH 8.0), and human trypsin (Sigma, 25 μL) was added. Using a fluorescence plate reader fmax (Molecular Devices, Inc.), the reaction rate was measured from the time-course changes at excitation wavelength 355 nm and fluorescence wavelength 460 nm. The Ki value was calculated from the concentration of the test compound, reciprocal of reaction rate, and Km value of the enzyme substrate, and by using Dixon plot.

The target in experiment [2] is recombinant human enteropeptidase (Homo sapiens (Human), UniProt P98073). The experiment is described as follows: Measurement of enteropeptidase inhibitory activity. Type of experiment: biochemical. The note with it: substrate Gly-Asp-Asp-Asp-Asp-Lys-β-Naphtylamide, Tris-HCl pH 8.0, Dixon plot. How it is done: Using a 96 well plate (#3915, Costar), a test compound (25 μL), 400 mM Tris-HCl buffer (pH 8.0, 25 μL) and 0.5 mg/mL, fluorescence enzyme substrate (Gly-Asp-Asp-Asp-Asp-Lys-β-Naphtylamide, 25 μL) were mixed, and recombinant human enteropeptidase (R&D Systems, Inc., 25 μL) was added. Using a fluorescence plate reader fmax (Molecular Devices, Inc.), the reaction rate was measured from the time-course changes at excitation wavelength 320 nm and fluorescence wavelength 405 nm. The Ki value was calculated from the concentration of the test compound, reciprocal of reaction rate, and Km value of the enzyme substrate, and by using Dixon plot.

In experiment [3] the target is human trypsin. The experiment is described as follows: Measurement of trypsin inhibitory activity. Type of experiment: biochemical. The note with it: substrate Boc-Phe-Ser-Arg-AMC, Tris-HCl pH 8.0, Dixon plot. The protocol:
as §1

Chain of recombinant human enteropeptidase (P98073 whole entry): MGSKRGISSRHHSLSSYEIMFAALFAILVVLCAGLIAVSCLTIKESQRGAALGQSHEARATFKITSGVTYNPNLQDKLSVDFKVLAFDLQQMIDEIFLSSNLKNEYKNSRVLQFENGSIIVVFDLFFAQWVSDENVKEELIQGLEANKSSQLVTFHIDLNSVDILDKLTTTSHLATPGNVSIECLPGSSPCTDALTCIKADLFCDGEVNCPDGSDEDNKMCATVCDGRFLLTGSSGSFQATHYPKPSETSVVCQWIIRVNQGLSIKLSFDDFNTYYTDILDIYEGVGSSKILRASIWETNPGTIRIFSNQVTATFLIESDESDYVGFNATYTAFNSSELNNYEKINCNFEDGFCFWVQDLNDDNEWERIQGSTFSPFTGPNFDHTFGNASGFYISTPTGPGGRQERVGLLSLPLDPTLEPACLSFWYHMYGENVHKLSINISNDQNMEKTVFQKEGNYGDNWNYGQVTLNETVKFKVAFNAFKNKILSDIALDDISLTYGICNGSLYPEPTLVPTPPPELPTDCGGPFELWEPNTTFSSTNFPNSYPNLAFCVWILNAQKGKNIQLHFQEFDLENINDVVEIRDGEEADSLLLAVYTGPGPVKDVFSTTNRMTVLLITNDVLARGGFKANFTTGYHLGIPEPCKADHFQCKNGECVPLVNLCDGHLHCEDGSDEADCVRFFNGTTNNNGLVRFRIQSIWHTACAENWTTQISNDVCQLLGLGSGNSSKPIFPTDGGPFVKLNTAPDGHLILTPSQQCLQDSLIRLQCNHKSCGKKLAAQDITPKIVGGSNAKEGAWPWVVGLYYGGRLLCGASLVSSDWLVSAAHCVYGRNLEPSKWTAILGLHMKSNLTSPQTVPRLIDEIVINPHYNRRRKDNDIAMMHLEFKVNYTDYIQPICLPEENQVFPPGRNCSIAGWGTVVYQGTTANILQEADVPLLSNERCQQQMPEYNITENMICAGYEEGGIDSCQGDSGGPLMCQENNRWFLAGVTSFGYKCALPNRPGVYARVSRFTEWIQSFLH

In the case of `CC(C)(Cc1ccc(C(=O)Oc2ccc(C(=N)N)cc2F)s1)C(=O)N[C@@H](C(=O)O)c1ccc(O)cc1.O=C(O)C(F)(F)F` [Compound 69], in the experiment with Zucker Fatty rats, the “blood glucose levels compared with vehicle group” value is “significantly decreased”.

`CCC(CC)(Cc1ccc(C(=O)Oc2ccc(C(=N)N)cc2F)s1)C(=O)Nc1ccc(O)c(C(=O)O)c1` [Compound 82]: the inhibition constant Ki (commonly the dissociation constant of the complex between target and ligand, obtained from inhibition or displacement) at human trypsin [1] was determined as 5.32 nM; in experiment [2], 3.52 nM.

Consider `CCC(CC)(Cc1ccc(C(=O)Oc2ccc(C(=N)N)cc2F)s1)C(=O)Nc1ccc(C(=O)O)c(C(=O)O)c1` [Compound 90], for which the results for the Ki (on human trypsin [1]; in experiment [2]) were 1.7 nM and 0.55 nM, respectively.

As to `CCCN(CC(=O)O)C(=O)C(C)(C)Cc1ccc(C(=O)Oc2ccc(C(=N)N)cc2F)s1.Cl` [Compound 10, N-{3-[5-(4-amidino-2-fluorophenoxycarbonyl)thiophen-2-yl]-2,2-dimethylpropionyl}-N-propylglycine hydrochloride], the “blood glucose levels compared with vehicle group” value in the experiment with Zucker Fatty rats was “significantly decreased”.

As to `CC(C)(Cc1ccc(C(=O)Oc2ccc(C(=N)N)cc2F)s1)C(=O)N1C[C@H](O)C[C@H]1C(=O)O` [Compound 93], the Ki was 0.9 nM on human trypsin [3] and 0.3 nM in experiment [2].

In the case of `CCC(CC)(Cc1ccc(C(=O)Oc2ccc(C(=N)N)cc2F)s1)C(=O)Nc1cccc(S(=O)(=O)O)c1` [Compound 89], the values for the Ki (on human trypsin [3]; in experiment [2]) were 1.17 nM and 0.84 nM, respectively.

Consider `CC(C)(Cc1ccc(C(=O)Oc2ccc(C(=N)N)cc2F)s1)C(=O)N1CC[C@H](C(=O)O)C1` [Compound 91], for which the results for the Ki (at human trypsin [1]; in experiment [2]) were 1.33 nM and 0.9 nM, respectively.

`CC(C)(Cc1ccc(C(=O)Oc2ccc(C(=N)N)cc2F)s1)C(=O)N[C@H](C(=O)O)c1ccc(O)cc1` [Compound 92]: the Ki worked out at 0.96 nM on human trypsin [3] and 0.67 nM in experiment [2].

For the compound `CC(C)(Cc1ccc(C(=O)Oc2ccc(C(=N)N)cc2F)s1)C(=O)O.O=C(O)C(F)(F)F` [Compound 87], the Ki at human trypsin [1] was 1.3 nM; in experiment [2] it was 0.39 nM. Also, the “blood glucose levels compared with vehicle group” value in the experiment with Zucker Fatty rats is listed as “significantly decreased”.

For `CCC(CC)(Cc1ccc(C(=O)Oc2ccc(C(=N)N)cc2F)s1)C(=O)N[C@@H](CC(=O)O)C(=O)O.Cl` [Compound 19], in the experiment on Zucker Fatty rats, the “blood glucose levels compared with vehicle group” value is reported as “significantly decreased”.

In the case of `CCC(CC)(Cc1ccc(C(=O)Oc2ccc(C(=N)N)cc2F)s1)C(=O)N1CC(C(=O)O)C1` [Compound 88], the figures for the Ki (at human trypsin [1]; in experiment [2]) were 2.87 nM and 1 nM, respectively.

With `CC(C)(Cc1ccc(C(=O)Oc2ccc(C(=N)N)cc2F)s1)C(=O)N[C@H]1CCC[C@@H](C(=O)O)C1` [Compound 85], the Ki at human trypsin [1] was 0.69 nM; in experiment [2], 0.81 nM.

As to `CCC(CC)(Cc1ccc(C(=O)Oc2ccc(C(=N)N)cc2F)s1)C(=O)N[C@@H](CCC(=O)O)c1nnn[nH]1` [Compound 84], the values for the inhibition constant Ki (on human trypsin [3]; in experiment [2]) were 3.27 nM and 0.43 nM, respectively.

Regarding `CC(C)(Cc1ccc(C(=O)Oc2ccc(C(=N)N)cc2F)s1)C(=O)N[C@H]1CC=CC[C@H]1C(=O)O` [Compound 94], the results for the Ki (on human trypsin [3]; in experiment [2]) were 1.98 nM and 1.3 nM, respectively.

Regarding `CC(C)(Cc1ccc(C(=O)Oc2ccc(C(=N)N)cc2F)s1)C(=O)Nc1cc(O)cc(C(=O)O)c1` [Compound 74], the Ki turned out to be 0.18 nM at human trypsin [1] and 0.58 nM in experiment [2].

With `CCC(CC)(Cc1ccc(C(=O)Oc2ccc(C(=N)N)cc2F)s1)C(=O)NCC(=O)O` [Compound 83], the Ki is 1.42 nM on human trypsin [3] and 0.72 nM in experiment [2].

With `CCC(CC)(Cc1ccc(C(=O)Oc2ccc(C(=N)N)cc2F)s1)C(=O)N[C@@H](Cc1nn[nH]n1)C(=O)O` [Compound 86], the Ki on human trypsin [1] is 3.4 nM; in experiment [2] it was 0.24 nM.
